From article PMC11971462, “Generation and validation of a novel multitarget small molecule in glioblastoma” (Cell Death & Disease, 2025)
Like-named read-outs stand apart in the source and are kept apart here.

System: GNS166 cells

C#CCN(Cc1cc2cc(OCCCN3CCCCC3)ccc2n1S(=O)(=O)c1ccccc1)C(=O)CCCCCCC(=O)NO [DDI]
TMEM156 log2FoldChange: 3.7131
TMOD1 log2FoldChange: 2.144
TNFSF18 log2FoldChange: 2.976
TNNI3 log2FoldChange: 7.061
TRPC4 log2FoldChange: 3.104
TTYH1 log2FoldChange: 4.78
TUBA3C log2FoldChange: 6.251
TUSC3 log2FoldChange: 3.3304
UNC5B log2FoldChange: 3.5878
USH1G log2FoldChange: 7.012
VAV3 log2FoldChange: 2.016
VGLL2 log2FoldChange: 2.35
VTCN1 log2FoldChange: 4.133
VWA1 log2FoldChange: 2.457
WNT2B log2FoldChange: 2.031
WNT10B log2FoldChange: 3.628
WSCD1 log2FoldChange: 2.865
XYLT1 log2FoldChange: 5.474
YPEL4 log2FoldChange: 2.644
ZCCHC12 log2FoldChange: 2.836
ZDHHC11B log2FoldChange: 2.194
ZDHHC22 log2FoldChange: 3.089
ZFP92 log2FoldChange: 2.85
ZMYND10 log2FoldChange: 2.335
ZNF208 log2FoldChange: 3.37
Direction (gene ALOX15B): Up
Direction (gene AMBN): Up
Direction (gene APELA): Up
Direction (gene ATP2B3): Up
Direction (gene B3GALT5): Up
Direction (gene BCL11B): Up
Direction (gene BRS3): Up
Direction (gene CA4): Up
Direction (gene CA7): Up
Direction (gene CAPNS2): Up
Direction (gene CCN5): Up
Direction (gene CD1D): Up
Direction (gene CDC20B): Up
Direction (gene CELF4): Up
Direction (gene CES1): Up
Direction (gene CFAP52): Up
Direction (gene CHRNA3): Up
Direction (gene CRB1): Up
Direction (gene CSAG1): Up
Direction (gene CSDC2): Up
Direction (gene CUX2): Up
Direction (gene CXorf51A): Up
Direction (gene DES): Up
Direction (gene DGKK): Up
Direction (gene EBF2): Up
Direction (gene EREG): Up
Direction (gene FAM9C): Up
Direction (gene FAM166A): Up
Direction (gene FER1L5): Up
Direction (gene FGD3): Up
Direction (gene FRG2): Up
Direction (gene FRMD7): Up
Direction (gene GAS7): Up
Direction (gene GMNC): Up
Direction (gene GOLGA8F): Up
Direction (gene GREM2): Up
Direction (gene GUCY2F): Up
Direction (gene HOXC13): Up
Direction (gene IBSP): Up
Direction (gene IRAG1): Up
Direction (gene IRF6): Up
Direction (gene KANK3): Up
Direction (gene KCNA1): Up
Direction (gene KCNH6): Up
Direction (gene KCNK5): Up
Direction (gene KCNK15): Up
Direction (gene KCNN2): Up
Direction (gene KCNQ1): Up
Direction (gene LHFPL1): Up
Direction (gene LHX5): Up
Direction (gene LOC102723623): Up
Direction (gene LRRC15): Up
Direction (gene MAGEA2): Up
Direction (gene MAGEA2B): Up
Direction (gene MAGEA6): Up
Direction (gene MAPK15): Up
Direction (gene ME1): Up
Direction (gene MEIOSIN): Up
Direction (gene MMEL1): Up
Direction (gene MMP12): Up
Direction (gene MYL2): Up
Direction (gene NOS3): Up
Direction (gene NTRK1): Up
Direction (gene PAGE4): Up
Direction (gene PAX2): Up
Direction (gene PCDHA1): Up
Direction (gene PITX3): Up
Direction (gene PLAC1): Up
Direction (gene PLK5): Up
Direction (gene PLXDC1): Up
Direction (gene PNLIPRP3): Up
Direction (gene POU3F4): Up
Direction (gene PSG6): Up
Direction (gene PTPRN): Up
Direction (gene RPRML): Up
Direction (gene RSPO1): Up
Direction (gene SCN4A): Up
Direction (gene SCRT1): Up
Direction (gene SH2D3A): Up
Direction (gene SHH): Up
Direction (gene SIDT1): Up
Direction (gene SLC4A9): Up
Direction (gene SLC11A1): Up
Direction (gene SLC18A1): Up
Direction (gene SLC19A3): Up
Direction (gene SLC35F3): Up
Direction (gene SLC36A2): Up
Direction (gene STMN4): Up
Direction (gene STRC): Up
Direction (gene SYT1): Up
Direction (gene TAC3): Up
Direction (gene TMEM196): Up
Direction (gene TNIP3): Up
Direction (gene TSPAN18): Up
Direction (gene TTC9B): Up
Direction (gene UGT3A1): Up
Direction (gene UNC5A): Up
Direction (gene VWA3B): Up
Direction (gene ZBBX): Up
Direction (gene ZNF479): Up
